Measured values published in patent publication US10987382B2, “Solanum dubium seeds and honey (extracted from bee hives in Acacia tree populated area) combination for treatment of asthma and bronchial asthma” (priority 2015, dated 2021).

Tested on: Carrageenan induced paw oedema in Wister Rats
Assay: Carrageenan induced paw oedema (anti-inflammatory activity)
Assay type: in vivo, rat
Conditions: for % reduction in edema volume: 40 mg/kg i.p.
Experimental: And anti-inflammatory study of aqueous crude extract of S. dubuim seeds, honey and S. dubuim seeds and honey (combination) on Wister Rats (42 rats), done to evaluate the anti inflammatory effects in animals using the method of Carrageenan induced paw oedema. (Nayak and Patel, 2010).
The first group serve as control and receive normal saline (1 ml/kg, orally), the second group served as standard and were administrated standard drug diclofenac sodium (100 mg/kg i.p.). The remaining groups were treated with, the third group received honey (2 ml/kg, orally), the fourth group are treated with the S. dubium seeds (2 ml/kg orally), the fifth group are treated with combination (2 ml/kg orally), the sixth group are treated with combination (4 ml/kg orally) and group seventh treated with standard drug hydrocortisone (40 mg/kg i.p.). A mark was made on both the hind paws just below the tibio-tarsal junction. After 30 min of the above treatment an inflammatory oedema was induced in the left hind paw by inject 0.1 ml solution of Carrageenan, in the planter tissue of all the animals. The paw volume was measured at first hour and followed every hour till the fifths hour after administration of carrageenan of each group. The difference between the initial and subsequence reading gave the actual edema volume. […] 100 mg/kg.
Finally the results of the anti-inflammatory activity of the fractions of methanolic extract (144) Wister Rats. […] Also the alcoholic extract of all fractions decreased rat paw edema at the end of 5th hour. The paw volume was measured initially at 0, 1, 2, 3, 4 and 5 h after Carrageenan injection using digital paw edema meter. Percent inhibition of inflammation was calculated using the formula: % Inhibition=100(1−vt/vc). Where (vc) represents edema volume in control and (vt) edema volume in group treated with sample.

| SMILES | inhibition at 100 mg/kg (Rattus norvegicus, ip, 100 mg/kg i.p., after 4 hour, read-out: % inhibition of paw edema) | % reduction in edema volume (after 4 hour) | % reduction in edema volume (after 5 hour) |
| --- | --- | --- | --- |
| O=C(O)Cc1ccccc1Nc1c(Cl)cccc1Cl [diclofenac sodium] | 74.3% |  |  |
| C[C@]12CCC(=O)C=C1CC[C@@H]1[C@@H]2[C@@H](O)C[C@@]2(C)[C@H]1CC[C@]2(O)C(=O)CO [hydrocortisone] |  | 70.39% | 76.35% |
